# What was measured:
# [1] = system: Tyrosine-protein kinase ABL1 (Homo sapiens), P00519 [T315I]; conditions: Compound concentration 100.0 nM
# [2] = target: Ankyrin repeat and protein kinase domain-containing protein 1 (Homo sapiens) (UniProt Q8NFD2); conditions: Compound concentration 100.0 nM
# [3] = target: Bone morphogenetic protein receptor type-1A (Homo sapiens) (UniProt P36894); conditions: Compound concentration 100.0 nM
# [4] = target: Calcium/calmodulin-dependent protein kinase type II subunit alpha (Homo sapiens) (UniProt Q9UQM7); conditions: Compound concentration 100.0 nM
# Chain of Calcium/calmodulin-dependent protein kinase type II subunit alpha (Homo sapiens) (Q9UQM7 whole entry): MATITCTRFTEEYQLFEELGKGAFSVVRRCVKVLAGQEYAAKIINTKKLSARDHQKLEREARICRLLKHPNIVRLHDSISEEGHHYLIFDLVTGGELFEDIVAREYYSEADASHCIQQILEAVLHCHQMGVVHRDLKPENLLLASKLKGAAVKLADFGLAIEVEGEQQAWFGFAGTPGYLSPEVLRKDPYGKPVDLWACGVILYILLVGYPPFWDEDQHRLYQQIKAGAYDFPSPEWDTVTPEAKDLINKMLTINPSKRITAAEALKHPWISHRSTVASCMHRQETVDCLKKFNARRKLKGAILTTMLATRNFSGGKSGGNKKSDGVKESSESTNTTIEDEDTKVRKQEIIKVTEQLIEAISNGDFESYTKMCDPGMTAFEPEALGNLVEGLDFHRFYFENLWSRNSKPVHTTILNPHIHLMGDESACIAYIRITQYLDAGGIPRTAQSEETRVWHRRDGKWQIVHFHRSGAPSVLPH
# [5] = target: Calcium/calmodulin-dependent protein kinase type IV (Homo sapiens) (UniProt Q16566); conditions: Compound concentration 100.0 nM
# [6] = target: Peripheral plasma membrane protein CASK (Homo sapiens) (UniProt O14936); conditions: Compound concentration 100.0 nM
# [7] = target: Cyclin-dependent kinase 3 (Homo sapiens) (UniProt Q00526); conditions: Compound concentration 100.0 nM
# [8] = target: Dual specificity protein kinase CLK3 (Homo sapiens) (UniProt P49761); conditions: Compound concentration 100.0 nM
# [9] = target: Dual specificity protein kinase CLK4 (Homo sapiens) (UniProt Q9HAZ1); conditions: Compound concentration 100.0 nM
# [10] = target: Macrophage colony-stimulating factor 1 receptor (Homo sapiens) (UniProt P07333); conditions: Compound concentration 100.0 nM
# [11] = target: Death-associated protein kinase 1 (Homo sapiens) (UniProt P53355); conditions: Compound concentration 100.0 nM
# [12] = target: Ephrin type-A receptor 4 (Homo sapiens) (UniProt P54764); conditions: Compound concentration 100.0 nM
# [13] = target: Receptor tyrosine-protein kinase erbB-2 (Homo sapiens) (UniProt P04626); conditions: Compound concentration 100.0 nM
# [14] = target: Tyrosine-protein kinase Fes/Fps (Homo sapiens) (UniProt P07332); conditions: Compound concentration 100.0 nM
# Chain of Tyrosine-protein kinase Fes/Fps (Homo sapiens) (P07332 whole entry): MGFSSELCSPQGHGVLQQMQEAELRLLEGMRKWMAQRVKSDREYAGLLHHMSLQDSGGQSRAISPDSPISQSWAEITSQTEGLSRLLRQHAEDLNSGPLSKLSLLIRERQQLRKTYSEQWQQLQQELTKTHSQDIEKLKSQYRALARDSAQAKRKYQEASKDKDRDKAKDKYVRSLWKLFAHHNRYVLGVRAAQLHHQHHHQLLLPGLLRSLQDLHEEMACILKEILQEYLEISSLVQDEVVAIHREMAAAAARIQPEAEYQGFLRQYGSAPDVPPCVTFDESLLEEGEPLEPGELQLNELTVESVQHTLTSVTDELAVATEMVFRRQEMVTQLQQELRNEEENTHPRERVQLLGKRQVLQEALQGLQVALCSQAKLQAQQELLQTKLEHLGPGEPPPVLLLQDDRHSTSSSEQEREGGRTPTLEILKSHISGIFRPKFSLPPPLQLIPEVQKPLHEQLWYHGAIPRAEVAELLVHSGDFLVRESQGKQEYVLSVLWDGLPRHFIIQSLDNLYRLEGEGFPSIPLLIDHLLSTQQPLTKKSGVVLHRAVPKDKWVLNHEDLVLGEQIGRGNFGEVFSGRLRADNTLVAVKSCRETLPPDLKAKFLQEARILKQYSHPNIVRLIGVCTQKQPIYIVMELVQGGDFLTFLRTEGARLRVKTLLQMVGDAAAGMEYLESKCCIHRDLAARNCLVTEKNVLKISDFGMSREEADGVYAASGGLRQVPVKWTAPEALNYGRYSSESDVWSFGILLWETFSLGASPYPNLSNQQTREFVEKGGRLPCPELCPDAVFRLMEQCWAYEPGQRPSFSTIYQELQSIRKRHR
# [15] = target: Vascular endothelial growth factor receptor 1 (Homo sapiens) (UniProt P17948); conditions: Compound concentration 100.0 nM
# [16] = target: Vascular endothelial growth factor receptor 3 (Homo sapiens) (UniProt P35916); conditions: Compound concentration 100.0 nM
# Chain of Vascular endothelial growth factor receptor 3 (Homo sapiens) (P35916 whole entry): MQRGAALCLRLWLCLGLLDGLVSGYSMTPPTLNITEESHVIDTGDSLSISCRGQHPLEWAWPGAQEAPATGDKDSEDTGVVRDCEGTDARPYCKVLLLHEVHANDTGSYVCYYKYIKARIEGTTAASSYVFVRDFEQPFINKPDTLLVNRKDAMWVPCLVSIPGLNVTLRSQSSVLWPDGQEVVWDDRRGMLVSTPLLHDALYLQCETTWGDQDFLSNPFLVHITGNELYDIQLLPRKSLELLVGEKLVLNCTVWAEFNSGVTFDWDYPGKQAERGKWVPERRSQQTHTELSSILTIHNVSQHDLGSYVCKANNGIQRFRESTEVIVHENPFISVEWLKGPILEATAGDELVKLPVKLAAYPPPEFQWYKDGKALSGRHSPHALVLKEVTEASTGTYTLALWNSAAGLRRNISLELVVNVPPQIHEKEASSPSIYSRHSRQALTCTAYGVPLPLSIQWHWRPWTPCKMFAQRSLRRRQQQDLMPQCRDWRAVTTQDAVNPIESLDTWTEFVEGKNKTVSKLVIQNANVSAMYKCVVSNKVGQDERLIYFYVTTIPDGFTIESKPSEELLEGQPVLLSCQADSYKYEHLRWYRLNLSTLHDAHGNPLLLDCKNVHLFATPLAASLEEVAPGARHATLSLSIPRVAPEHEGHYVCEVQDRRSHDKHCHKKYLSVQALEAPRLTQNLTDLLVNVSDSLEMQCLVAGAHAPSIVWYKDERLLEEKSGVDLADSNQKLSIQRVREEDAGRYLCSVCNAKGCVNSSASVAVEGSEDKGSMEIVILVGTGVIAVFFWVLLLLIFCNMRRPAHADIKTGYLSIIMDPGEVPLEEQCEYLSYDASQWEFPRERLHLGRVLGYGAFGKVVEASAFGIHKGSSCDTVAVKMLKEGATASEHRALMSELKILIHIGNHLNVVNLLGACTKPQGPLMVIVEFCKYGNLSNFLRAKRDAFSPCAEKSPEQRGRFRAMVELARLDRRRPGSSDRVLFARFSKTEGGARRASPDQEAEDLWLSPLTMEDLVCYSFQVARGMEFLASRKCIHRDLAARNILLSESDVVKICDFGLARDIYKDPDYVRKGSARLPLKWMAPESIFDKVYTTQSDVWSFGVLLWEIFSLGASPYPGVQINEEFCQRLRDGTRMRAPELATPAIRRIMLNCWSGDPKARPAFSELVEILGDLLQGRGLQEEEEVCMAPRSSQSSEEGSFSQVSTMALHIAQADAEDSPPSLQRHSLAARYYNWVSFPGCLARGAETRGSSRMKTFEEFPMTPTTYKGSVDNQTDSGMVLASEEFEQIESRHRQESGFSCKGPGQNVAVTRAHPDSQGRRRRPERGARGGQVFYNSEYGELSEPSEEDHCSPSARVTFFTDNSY
# [17] = target: Cyclin-G-associated kinase (Homo sapiens) (UniProt O14976); conditions: Compound concentration 100.0 nM
# [18] = target: Beta-adrenergic receptor kinase 1 (Homo sapiens) (UniProt P25098); conditions: Compound concentration 100.0 nM
# [19] = target: Hormonally up-regulated neu tumor-associated kinase (Homo sapiens) (UniProt P57058); conditions: Compound concentration 100.0 nM
# [20] = target: Mitogen-activated protein kinase 10 (Homo sapiens) (UniProt P53779); conditions: Compound concentration 100.0 nM
# Chain of Mitogen-activated protein kinase 10 (Homo sapiens) (P53779 whole entry): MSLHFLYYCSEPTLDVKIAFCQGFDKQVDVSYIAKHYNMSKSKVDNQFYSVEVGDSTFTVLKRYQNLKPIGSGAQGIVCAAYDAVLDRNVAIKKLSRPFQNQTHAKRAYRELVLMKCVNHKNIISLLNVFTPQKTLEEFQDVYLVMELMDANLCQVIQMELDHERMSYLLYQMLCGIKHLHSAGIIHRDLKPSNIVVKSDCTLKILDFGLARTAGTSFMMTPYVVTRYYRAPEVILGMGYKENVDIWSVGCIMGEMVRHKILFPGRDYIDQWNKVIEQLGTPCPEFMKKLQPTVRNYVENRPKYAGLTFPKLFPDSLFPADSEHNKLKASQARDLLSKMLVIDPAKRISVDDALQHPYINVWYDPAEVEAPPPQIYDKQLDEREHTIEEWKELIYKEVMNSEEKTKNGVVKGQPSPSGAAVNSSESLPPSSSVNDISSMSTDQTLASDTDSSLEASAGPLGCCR
# [21] = target: Mitogen-activated protein kinase kinase kinase kinase 4 (Homo sapiens) (UniProt O95819); conditions: Compound concentration 100.0 nM
# [22] = system: Hepatocyte growth factor receptor (Homo sapiens), P08581 [Y1235D]; conditions: Compound concentration 100.0 nM
# [23] = target: Serine/threonine-protein kinase 3 (Homo sapiens) (UniProt Q13188); conditions: Compound concentration 100.0 nM
# [24] = target: Serine/threonine-protein kinase Nek3 (Homo sapiens) (UniProt P51956); conditions: Compound concentration 100.0 nM
# [25] = target: Serine/threonine-protein kinase Nek9 (Homo sapiens) (UniProt Q8TD19); conditions: Compound concentration 100.0 nM
# [26] = target: Cyclin-dependent kinase 17 (Homo sapiens) (UniProt Q00537); conditions: Compound concentration 100.0 nM
# [27] = system: Phosphatidylinositol 4,5-bisphosphate 3-kinase catalytic subunit alpha isoform (Homo sapiens), P42336 [M1043I]; conditions: Compound concentration 100.0 nM
# [28] = target: Phosphatidylinositol 4,5-bisphosphate 3-kinase catalytic subunit gamma isoform (Homo sapiens) (UniProt P48736); conditions: Compound concentration 100.0 nM
# [29] = target: Serine/threonine-protein kinase N2 (Homo sapiens) (UniProt Q16513); conditions: Compound concentration 100.0 nM
# Chain of Serine/threonine-protein kinase N2 (Homo sapiens) (Q16513 whole entry, looked up): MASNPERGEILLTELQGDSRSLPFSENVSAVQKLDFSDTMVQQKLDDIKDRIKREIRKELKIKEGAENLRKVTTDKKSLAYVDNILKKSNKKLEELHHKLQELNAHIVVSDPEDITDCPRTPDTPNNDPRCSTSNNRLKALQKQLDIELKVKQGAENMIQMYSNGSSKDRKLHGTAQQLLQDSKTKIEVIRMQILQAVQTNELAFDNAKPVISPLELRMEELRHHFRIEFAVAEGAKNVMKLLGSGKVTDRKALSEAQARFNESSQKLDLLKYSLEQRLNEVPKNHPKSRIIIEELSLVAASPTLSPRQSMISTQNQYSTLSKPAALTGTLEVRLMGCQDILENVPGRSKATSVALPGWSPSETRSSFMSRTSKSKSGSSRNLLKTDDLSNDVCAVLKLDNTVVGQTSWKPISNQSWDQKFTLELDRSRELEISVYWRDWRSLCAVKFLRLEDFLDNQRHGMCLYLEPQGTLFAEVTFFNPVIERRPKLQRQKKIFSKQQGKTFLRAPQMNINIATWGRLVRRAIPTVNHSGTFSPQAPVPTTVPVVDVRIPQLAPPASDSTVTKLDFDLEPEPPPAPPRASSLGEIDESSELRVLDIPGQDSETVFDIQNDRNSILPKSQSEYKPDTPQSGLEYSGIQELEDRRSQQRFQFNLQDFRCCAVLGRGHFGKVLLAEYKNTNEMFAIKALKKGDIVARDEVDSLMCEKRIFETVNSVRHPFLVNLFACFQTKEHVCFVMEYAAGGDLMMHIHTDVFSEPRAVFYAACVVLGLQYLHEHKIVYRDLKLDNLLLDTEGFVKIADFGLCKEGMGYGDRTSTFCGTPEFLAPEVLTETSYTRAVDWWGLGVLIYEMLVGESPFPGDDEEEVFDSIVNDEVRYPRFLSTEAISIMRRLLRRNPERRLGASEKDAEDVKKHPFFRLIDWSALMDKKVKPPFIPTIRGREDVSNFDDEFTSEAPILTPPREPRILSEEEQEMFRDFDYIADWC
# [30] = target: Serine/threonine-protein kinase D3 (Homo sapiens) (UniProt O94806); conditions: Compound concentration 100.0 nM
# [31] = target: Proto-oncogene tyrosine-protein kinase receptor Ret (Homo sapiens) (UniProt P07949); conditions: Compound concentration 100.0 nM
# [32] = target: Ribosomal protein S6 kinase alpha-5 (Homo sapiens) (UniProt O75582); conditions: Compound concentration 100.0 nM
# [33] = target: Ribosomal protein S6 kinase alpha-1 (Homo sapiens) (UniProt Q15418); conditions: Compound concentration 100.0 nM
# [34] = target: Ribosomal protein S6 kinase alpha-2 (Homo sapiens) (UniProt Q15349); conditions: Compound concentration 100.0 nM
# [35] = target: Serine/threonine-protein kinase Sgk1 (Homo sapiens) (UniProt O00141); conditions: Compound concentration 100.0 nM
# [36] = target: Serine/threonine-protein kinase SIK2 (Homo sapiens) (UniProt Q9H0K1); conditions: Compound concentration 100.0 nM
# [37] = target: Tyrosine-protein kinase SYK (Homo sapiens) (UniProt P43405); conditions: Compound concentration 100.0 nM
# [38] = target: Mitogen-activated protein kinase kinase kinase 7 (Homo sapiens) (UniProt O43318); conditions: Compound concentration 100.0 nM
# [39] = target: Activated CDC42 kinase 1 (Homo sapiens) (UniProt Q07912); conditions: Compound concentration 100.0 nM
# [40] = target: Serine/threonine-protein kinase TNNI3K (Homo sapiens) (UniProt Q59H18); conditions: Compound concentration 100.0 nM
# [41] = target: Serine/threonine-protein kinase ULK3 (Homo sapiens) (UniProt Q6PHR2); conditions: Compound concentration 100.0 nM
# [42] = target: Serine/threonine-protein kinase WNK1 (Homo sapiens) (UniProt Q9H4A3); conditions: Compound concentration 100.0 nM
# [43] = target: 5-hydroxytryptamine receptor 2A (Homo sapiens) (UniProt P28223); conditions: Compound concentration 10.0 uM
# D(1B) dopamine receptor = D(1B) dopamine receptor (Homo sapiens, UniProt P21918); conditions: Compound concentration 10.0 uM
# Rattus norvegicus = organism: Rattus norvegicus; conditions: Compound concentration 10.0 uM
# Chain of Ankyrin repeat and protein kinase domain-containing protein 1 (Homo sapiens) (Q8NFD2 whole entry, the tested form may be a part): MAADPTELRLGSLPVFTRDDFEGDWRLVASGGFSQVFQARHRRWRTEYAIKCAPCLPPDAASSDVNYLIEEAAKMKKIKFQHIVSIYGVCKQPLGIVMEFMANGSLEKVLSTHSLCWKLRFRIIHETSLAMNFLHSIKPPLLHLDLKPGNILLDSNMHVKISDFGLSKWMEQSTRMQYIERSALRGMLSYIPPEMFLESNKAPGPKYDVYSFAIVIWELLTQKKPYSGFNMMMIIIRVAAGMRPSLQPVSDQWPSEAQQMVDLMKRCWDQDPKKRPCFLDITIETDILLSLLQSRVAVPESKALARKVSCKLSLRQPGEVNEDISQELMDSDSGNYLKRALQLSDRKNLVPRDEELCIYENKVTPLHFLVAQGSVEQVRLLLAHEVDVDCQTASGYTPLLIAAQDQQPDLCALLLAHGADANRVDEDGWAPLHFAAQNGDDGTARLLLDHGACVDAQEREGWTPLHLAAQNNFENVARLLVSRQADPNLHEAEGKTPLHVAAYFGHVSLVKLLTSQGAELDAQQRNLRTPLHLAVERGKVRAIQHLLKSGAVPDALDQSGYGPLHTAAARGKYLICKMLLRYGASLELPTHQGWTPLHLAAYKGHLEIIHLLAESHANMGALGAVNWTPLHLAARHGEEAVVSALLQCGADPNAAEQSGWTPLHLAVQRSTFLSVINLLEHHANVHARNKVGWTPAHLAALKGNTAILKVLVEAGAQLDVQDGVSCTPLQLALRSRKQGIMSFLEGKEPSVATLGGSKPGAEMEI
compound,measurement,setting,value
Cn1nc(C(=O)NCc2ccc(C(=O)O)cc2)cc1-c1ccc2[nH]ccc2c1 [BI 4395],residual activity,[1],71%
same,residual activity,[2],100%
same,residual activity,[3],94%
same,residual activity,[4],79%
same,residual activity,[5],92%
same,residual activity,[6],69%
same,residual activity,[7],88%
same,residual activity,[8],95%
same,residual activity,[9],69%
same,residual activity,[10],98%
same,residual activity,[11],97%
same,residual activity,[12],100%
same,residual activity,[13],92%
same,residual activity,[14],95%
same,residual activity,[15],89%
same,residual activity,[16],43%
same,residual activity,[17],90%
same,residual activity,[18],98%
same,residual activity,[19],65%
same,residual activity,[20],76%
same,residual activity,[21],92%
same,residual activity,[22],100%
same,residual activity,[23],91%
same,residual activity,[24],100%
same,residual activity,[25],99%
same,residual activity,[26],77%
same,residual activity,[27],85%
same,residual activity,[28],64%
same,residual activity,[29],100%
same,residual activity,[30],89%
same,residual activity,[31],83%
same,residual activity,[32],76%
same,residual activity,[33],100%
same,residual activity,[34],100%
same,residual activity,[35],88%
same,residual activity,[36],90%
same,residual activity,[37],81%
same,residual activity,[38],95%
same,residual activity,[39],100%
same,residual activity,[40],100%
same,residual activity,[41],99%
same,residual activity,[42],100%
same,inhibition,[43],23.6%
same,inhibition,D(1B) dopamine receptor,73.9%
same,inhibition,Rattus norvegicus,6.39%
CCOC(=O)c1cc2cc(-c3cc(C(=O)NCc4ccc(C(=O)O)cc4)nn3C)ccc2[nH]1 [BI 4394],residual activity,[1],92%
same,residual activity,[2],100%
same,residual activity,[3],87%
same,residual activity,[4],76%
same,residual activity,[5],95%
same,residual activity,[6],71%
same,residual activity,[7],43%
same,residual activity,[8],83%
same,residual activity,[9],89%
same,residual activity,[10],94%
same,residual activity,[11],84%
same,residual activity,[12],96%
same,residual activity,[13],99%
same,residual activity,[14],94%
same,residual activity,[15],97%
same,residual activity,[16],97%
same,residual activity,[17],85%
same,residual activity,[18],100%
same,residual activity,[19],100%
same,residual activity,[20],100%
same,residual activity,[21],95%
same,residual activity,[22],86%
same,residual activity,[23],96%
same,residual activity,[24],88%
same,residual activity,[25],98%
same,residual activity,[26],100%
same,residual activity,[27],100%
same,residual activity,[28],90%
same,residual activity,[29],86%
same,residual activity,[30],100%
same,residual activity,[31],87%
same,residual activity,[32],91%
same,residual activity,[33],97%
same,residual activity,[34],100%
same,residual activity,[35],100%
same,residual activity,[36],100%
same,residual activity,[37],100%
same,residual activity,[38],80%
same,residual activity,[39],100%
same,residual activity,[40],100%
same,residual activity,[41],100%
same,residual activity,[42],93%
same,inhibition,[43],19.1%
same,inhibition,D(1B) dopamine receptor,59.6%
same,inhibition,Rattus norvegicus,-1.91%
